This is an account of results in patent US20040242871A1, “Novel arylheteroalkylamine derivatives” (priority 2001, published 2004).

For orientation: melting point means the temperature, or range, at which the solid turns liquid.

Data set [1] has as its target T1, Nitric oxide synthase from induced murine macrophage cell line J774A-1 (Mus musculus, UniProt P29477).
T1 construct: The reaction is started by adding 50 μl of cell lysate (prepared as above); endogenous in cells; host or cells: J774A-1 murine macrophage cell line, induced with LPS and IFN-gamma; crude cell lysate
The experiment in a line: Screen 1: nitric oxide synthase inhibition, conversion of 3H-L-arginine into 3H-L-citrulline, lysate of induced J774A-1 cells. Format: biochemical. The settings on record: J774A-1 cell lysate (LPS/IFNg induced), 1 hour at room temperature; read-out: IC50 (concentration of drug substance which gives 50% enzyme inhibition in the assay). How it is done:
The activity of compounds of formula (I), or a pharmaceutically acceptable salt, enantiomer or racemate thereof, may be screened for nitric oxide synthase inhibiting activity by a procedure based on that of Förstermann et al., Eur. J. Pharm., 1992, 225, 161-165. Nitric oxide synthase converts ^3H-L-arginine into ^3H-L-citrulline which can be separated by cation exchange chromatography and quantified by liquid scintillation counting.
Enzyme is prepared, after induction, from the cultured murine macrophage cell line J774A-1 (obtained from the laboratories of the Imperial Cancer Research Fund). J774A-1 cells are cultured in Dulbeccos Modified Eagles Medium (DMEM) supplemented with 10% foetal bovine serum, 4 mM L-glutamine and antibiotics (100 units/ml penicillin G, […] streptomycin & […] amphotericin B). Cells are routinely grown in […] flasks containing 35 ml medium kept at 37° C. and in a humidified atmosphere containing 5% CO2. […]
Labelled L-citrulline is separated from labelled L-arginine using Dowex AG-SOW. […] After allowing the samples to dry the L-citrulline is quantified by scintillation counting.
In a typical experiment basal activity is 300 dpm per 75 μl sample which is increased to 1900 dpm in the reagent controls. […] Compounds are tested at a range of concentrations and from the inhibitions obtained IC50 values are calculated. […]

pIC50: −log10 of the molar value.

In the case of `N=C(N)NN` [aminoguanidie], the pIC50 in data set [1] is 5.00.

The compound `COc1cc(S[C@H](C[C@H](N)CO)c2sccc2F)c(C#N)cn1.O=C(O)/C=C/C(=O)O` [Example 60, 4-[[(1R,3S)-3-Amino-1-(3-fluoro-2-thienyl)-4-hydroxybutyl]thio]-6-methoxy-3-pyridinecarbonitrile (E)-butenedioate salt] displayed a melting point of 177 to 178 °C.

Take `Cl.Cl.N#Cc1cc(F)c(Cl)cc1S[C@H](C[C@H](N)CO)c1cccnc1` [Example 57, 2-[[(1R,3S)-3-Amino-4-hydroxy-1-(3-pyridinyl)butyl]thio]-4-chloro-5-fluorobenzonitrile dihydrochloride]: the melting point lay within 252 to 255 °C.

As to `N#Cc1ccc(S[C@H](C[C@H](N)CO)c2ccccc2)c(Cl)c1.O=C(O)C(=O)O` [Example 43, 4-[[(1R,3S)-3-Amino-4-hydroxy-1-phenylbutyl]thio]-3-chlorobenzonitrile ethanedioate], the melting point was in the range of 142 to 144 °C.

`CCC[C@@H](C[C@H](N)CO)Oc1cc(Cl)c(F)cc1C#N.O=C(O)C(=O)O` [Example 48, 2-[[(1S,3S)-3-Amino-4-hydroxy-1-propylbutyl]oxy]-4-chloro-5-fluorobenzonitrile ethanedioate] had a melting point of 171 to 172 °C.

The compound `N#Cc1cc(F)c(Cl)cc1O[C@H](C[C@H](N)CO)c1scnc1Cl.O=C(O)/C=C/C(=O)O` [Example 61, 2-[[(1R,3S)-3-Amino-1-(4-chloro-5-thiazolyl)-4-hydroxybutyl]oxy]-4-chloro-5-fluorobenzonitrile (E)-butenedioate salt] gave a melting point of 177 to 178 °C.

On to `N#Cc1ccc(C(F)(F)F)nc1O[C@H](C[C@H](N)CO)c1ccc(F)cc1.O=C(O)C(=O)O` [Example 36, 2-[[(1R,3S)-3-Amino-1-(4-fluorophenyl)-4-hydroxybutyl]oxy]-6-trifluoromethyl-3-pyridinecarbonitrile ethanedioate], for which the melting point is 109 to 114 °C.

For the compound `CC(=O)c1ccc(C#N)c(S[C@H](C[C@H](N)CO)c2ccccc2)n1.Cl` [Example 20, 6-Acetyl-2-[[(1R,3S)-3-amino-4-hydroxy-1-phenylbutyl]thio]-3-pyridinecarbonitrile Hydrochloride], the melting point came out at 78 °C.
